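A five-concentration, 48-hour dose response in 96-well plates underlies each endpoint, interpolated linearly between surrounding concentrations. Abbreviation: GI50, concentration required for 50% inhibition of growth. TGI denotes the concentration required for complete inhibition of growth.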
Each compound was assayed on EKVX NSCLC (assay: NCI-60 cell line screen, 48 h).
`Nc1ccccc1SC1CC(=O)N(c2ccc(Cl)c(Cl)c2)C1=O` (stereo not drawn) gave a GI50 of 17.4 µM and a TGI greater than 100 µM. `CCOC(CN(C)C(=S)Nc1cccc2ccccc12)OCC` showed a TGI greater than 10 µM. Work on `CCCCN(CCCC)C(=C(C(Cl)=C(Cl)Cl)[N+](=O)[O-])N(CCCC)CCCC` yielded a TGI greater than 100 µM. Compound `COc1cc(CNc2nc3cc(C(F)(F)F)ccc3nc2-c2ccccc2)cc(OC)c1OC` has a TGI of 50.2 µM. `COc1ccc(/C=C(/c2ccccc2)[N+](=O)[O-])cc1` was tested, and the GI50 was 1.73 µM and the TGI was 3.52 µM.

These compounds were tested on TK-10 renal (assay: NCI-60 cell line screen, 48 h).
Compound `Nc1ccccc1SC1CC(=O)N(c2ccc(Cl)c(Cl)c2)C1=O` (stereo not drawn) has a GI50 of 20 µM and a TGI of 53 µM. `CCOC(CN(C)C(=S)Nc1cccc2ccccc12)OCC` showed a TGI greater than 10 µM. Work on `CCCCN(CCCC)C(=C(C(Cl)=C(Cl)Cl)[N+](=O)[O-])N(CCCC)CCCC` yielded a TGI greater than 100 µM. Compound `COc1cc(CNc2nc3cc(C(F)(F)F)ccc3nc2-c2ccccc2)cc(OC)c1OC` has a TGI greater than 100 µM. `COc1ccc(/C=C(/c2ccccc2)[N+](=O)[O-])cc1` showed a GI50 of 1.98 µM and a TGI of 3.93 µM.

Each compound was assayed on SK-OV-3 ovarian (assay: NCI-60 cell line screen, 48 h).
`Nc1ccccc1SC1CC(=O)N(c2ccc(Cl)c(Cl)c2)C1=O` (stereo not drawn) gave a GI50 of 17.6 µM and a TGI of 54 µM. `CCOC(CN(C)C(=S)Nc1cccc2ccccc12)OCC` showed a TGI greater than 10 µM. `CCCCN(CCCC)C(=C(C(Cl)=C(Cl)Cl)[N+](=O)[O-])N(CCCC)CCCC` was tested, and the TGI was greater than 100 µM. `COc1ccc(/C=C(/c2ccccc2)[N+](=O)[O-])cc1` gave a GI50 of 2.59 µM and a TGI of 6.91 µM.

The compounds below were run on HCC-2998 colon (assay: NCI-60 cell line screen, 48 h).
Work on `Nc1ccccc1SC1CC(=O)N(c2ccc(Cl)c(Cl)c2)C1=O` (stereo not drawn) yielded a GI50 of 59.6 µM and a TGI greater than 100 µM. `CCOC(CN(C)C(=S)Nc1cccc2ccccc12)OCC` showed a TGI greater than 10 µM. With `COc1cc(CNc2nc3cc(C(F)(F)F)ccc3nc2-c2ccccc2)cc(OC)c1OC` the TGI was 52.4 µM. Compound `COc1ccc(/C=C(/c2ccccc2)[N+](=O)[O-])cc1` has a GI50 of 1.75 µM and a TGI of 3.22 µM.

The compounds below were run on SK-MEL-28 melanoma (assay: NCI-60 cell line screen, 48 h).
`Nc1ccccc1SC1CC(=O)N(c2ccc(Cl)c(Cl)c2)C1=O` (stereo not drawn) was tested, and the GI50 was 45.4 µM and the TGI was greater than 100 µM. Work on `CCOC(CN(C)C(=S)Nc1cccc2ccccc12)OCC` yielded a TGI greater than 10 µM. With `CCCCN(CCCC)C(=C(C(Cl)=C(Cl)Cl)[N+](=O)[O-])N(CCCC)CCCC` the TGI was greater than 100 µM. Work on `COc1cc(CNc2nc3cc(C(F)(F)F)ccc3nc2-c2ccccc2)cc(OC)c1OC` yielded a TGI greater than 100 µM. With `COc1ccc(/C=C(/c2ccccc2)[N+](=O)[O-])cc1` the GI50 was 1.57 µM and the TGI was 3.19 µM.

Each compound was assayed on SK-MEL-2 melanoma (assay: NCI-60 cell line screen, 48 h).
Work on `Nc1ccccc1SC1CC(=O)N(c2ccc(Cl)c(Cl)c2)C1=O` (stereo not drawn) yielded a GI50 of 26.9 µM and a TGI greater than 100 µM. `CCOC(CN(C)C(=S)Nc1cccc2ccccc12)OCC` showed a TGI greater than 10 µM. For `CCCCN(CCCC)C(=C(C(Cl)=C(Cl)Cl)[N+](=O)[O-])N(CCCC)CCCC`, the TGI was greater than 100 µM. `COc1ccc(/C=C(/c2ccccc2)[N+](=O)[O-])cc1` gave a GI50 of 1.92 µM and a TGI of 4.44 µM.

Each compound was assayed on KM12 colon (assay: NCI-60 cell line screen, 48 h).
For `Nc1ccccc1SC1CC(=O)N(c2ccc(Cl)c(Cl)c2)C1=O` (stereo not drawn), the GI50 was 16.2 µM and the TGI was greater than 100 µM. Work on `CCOC(CN(C)C(=S)Nc1cccc2ccccc12)OCC` yielded a TGI greater than 10 µM. With `CCCCN(CCCC)C(=C(C(Cl)=C(Cl)Cl)[N+](=O)[O-])N(CCCC)CCCC` the TGI was greater than 100 µM. In the case of `COc1cc(CNc2nc3cc(C(F)(F)F)ccc3nc2-c2ccccc2)cc(OC)c1OC`, the TGI is reported as 53 µM. `COc1ccc(/C=C(/c2ccccc2)[N+](=O)[O-])cc1` gave a GI50 of 1.85 µM and a TGI of 3.5 µM.

Each compound was assayed on SK-MEL-5 melanoma (assay: NCI-60 cell line screen, 48 h).
`Nc1ccccc1SC1CC(=O)N(c2ccc(Cl)c(Cl)c2)C1=O` (stereo not drawn) was tested, and the GI50 was 21.9 µM and the TGI was greater than 100 µM.

— PubChem BioAssay (NCI)
